Each structure is given as a SMILES string.

The target of this test is T1, Recombinant human JARID1B/KDM5B (Homo sapiens, UniProt Q9UGL1).
T1 construct: purchased Active Motif 31432; host or cells: Sf9 insect cells
T1 sequence (Q9UGL1 whole entry): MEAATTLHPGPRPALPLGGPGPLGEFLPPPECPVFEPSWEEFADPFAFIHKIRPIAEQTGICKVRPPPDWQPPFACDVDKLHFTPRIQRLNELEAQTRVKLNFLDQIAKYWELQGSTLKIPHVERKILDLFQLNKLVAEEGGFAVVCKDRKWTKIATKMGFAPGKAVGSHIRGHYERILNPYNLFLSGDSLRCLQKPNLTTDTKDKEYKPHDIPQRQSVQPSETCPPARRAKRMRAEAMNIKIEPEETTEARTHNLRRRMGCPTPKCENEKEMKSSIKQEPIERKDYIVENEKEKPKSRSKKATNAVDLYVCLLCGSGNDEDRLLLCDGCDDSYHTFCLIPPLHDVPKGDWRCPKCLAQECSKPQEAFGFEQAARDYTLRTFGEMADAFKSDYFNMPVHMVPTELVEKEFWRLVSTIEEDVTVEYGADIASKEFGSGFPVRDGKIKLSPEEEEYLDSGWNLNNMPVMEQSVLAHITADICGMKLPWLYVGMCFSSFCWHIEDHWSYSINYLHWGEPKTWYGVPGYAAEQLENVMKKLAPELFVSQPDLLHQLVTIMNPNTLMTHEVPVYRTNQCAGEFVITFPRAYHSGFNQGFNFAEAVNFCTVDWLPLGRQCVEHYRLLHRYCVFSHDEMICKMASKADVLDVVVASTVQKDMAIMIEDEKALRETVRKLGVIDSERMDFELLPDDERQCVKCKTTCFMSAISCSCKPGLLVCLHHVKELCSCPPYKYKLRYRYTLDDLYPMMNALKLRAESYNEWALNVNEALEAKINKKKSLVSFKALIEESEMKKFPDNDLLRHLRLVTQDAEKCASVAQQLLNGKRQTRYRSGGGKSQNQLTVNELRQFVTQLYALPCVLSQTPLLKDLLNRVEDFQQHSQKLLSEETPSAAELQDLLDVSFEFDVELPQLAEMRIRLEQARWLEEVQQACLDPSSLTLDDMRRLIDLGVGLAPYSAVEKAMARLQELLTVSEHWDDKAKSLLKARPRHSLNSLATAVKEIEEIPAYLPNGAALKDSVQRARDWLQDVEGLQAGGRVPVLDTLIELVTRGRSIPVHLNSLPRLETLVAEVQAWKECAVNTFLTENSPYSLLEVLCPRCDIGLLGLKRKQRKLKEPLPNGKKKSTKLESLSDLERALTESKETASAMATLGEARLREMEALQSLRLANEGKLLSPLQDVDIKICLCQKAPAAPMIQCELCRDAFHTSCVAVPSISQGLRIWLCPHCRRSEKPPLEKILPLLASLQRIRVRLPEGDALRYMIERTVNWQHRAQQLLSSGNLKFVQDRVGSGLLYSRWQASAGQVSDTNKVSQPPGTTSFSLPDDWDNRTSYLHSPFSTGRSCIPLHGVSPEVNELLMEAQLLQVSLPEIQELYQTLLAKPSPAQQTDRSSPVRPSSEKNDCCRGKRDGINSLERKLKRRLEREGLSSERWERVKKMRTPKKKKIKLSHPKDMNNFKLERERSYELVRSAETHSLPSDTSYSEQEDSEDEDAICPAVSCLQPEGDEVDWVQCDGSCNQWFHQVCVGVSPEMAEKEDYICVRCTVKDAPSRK
Nature of the test: LANCE Ultra TR-FRET JARID1B (KDM5B) demethylase inhibition assay. It counts as biochemical. The note with it: 0.1 uM of test-compounds, FLAG-JARID1B, 500 nM biotinylated H3K4me3 peptide substrate, 30 min at room temperature. The text has this:
FLAG-tagged JARID1B (also known as KDM5B) protein was screened against 49 compounds. For this compound screening, LANCE Ultra time-resolved fluorescence resonance energy transfer (TR-FRET) assay was employed using a europoium (Eu)-labeled antibody that can specifically recognize mono- or dimethylated peptides (H3K4me2/1) and ULight-streptavidin (ULight-SA), a small molecule fluorescent dye. When irradiated at 340 nm, the energy from the Eu donor is transferred to the ULight acceptor dye which, in turn, emits light primarily at 665 nm. The ratio between the intensity of primary emission at 665 nm and that of secondary emission at […] was used to quantify the level of lysine methylation. As JARID1B removes more methyl moieties from tri-methylated substrate peptides (H3K4me3), the ratio increases until the enzyme reaction is terminated. In case, therefore, the compounds disrupt the enzymatic activity completely, the ratio becomes equal to a background value.
Recombinant human JARID1B/KDM5B (accession number NP_006609) of molecular weight 179.9 KDa was expressed in Sf9 insect cells and contains an N-terminal FLAG tag. The enzyme was obtained from Active Motif (Catalog No. 31432). The tri-methylated histone substrate peptide of purity greater than 95% was a synthetic peptide in which the first 21 amino acids correspond to the human histone H3 sequence with three extra amino acids and a biotin motif (GGK-biotin) linked to the C-terminus [sequence: ART-K(Me3)-QTARKSTGGKAPRKQLA-GGK-biotin-OH], (AnaSpec, Fremont, Calif. Catalog. No. ANA-1413). The reference inhibitor compound tranylcypromine (or trans-2-phenylcyclopropylamine hydrochloride, also known as, 2-PCPA) was purchased from Sigma (St. Louis, Mo. Cat. no. P8511). ULight-labeled streptavidin (ULight-SA, Catalog no. TRF0102), Eu-W1024-labeled anti-methyl-Histone H3 Lysine 4 (H3K4me1-2) Antibody (Catalog no. TRF0402), and LANCE detection buffer 10× (Catalog no. CR97-100) were obtained from PerkinElmer (Montreal, Quebec, Canada). The TR-FRET experiments were carried out in white, low-volume 384-wellplates purchased from PerkinElmer (ProxiPlate_-384 Plus, Catalog no. 6008280).
The TR-FRET signal was measured in the presence both of the bio-H3K4me3 peptide and FLAG-JARID1B by detecting any H3K4me2/1 peptide produced in the assay system. Assays using only the bio-H3K4me2 peptide were served as a positive control. Robust enzymatic progressions were observed by using JARID1B at concentrations ranging from 10 to 30 nM. In a typical TR-FRET experiment, JARID1B was pre-incubated with or without 0.1 uM of test-compounds (containing 1% DMSO final) for 5 min. The enzymatic reactions were initiated by the addition of 500 nM biotinylated H3K4me3 peptide substrate plus 500 uM of 2-OG 25 uM Fe(II) and 2 mM ascorbate. The reaction buffer also contained 50 mM Hepes (pH7.5), 0.01% (v/v) Tween 20, and 50 mM NaCl. The reaction mixture was incubated for 30 min at room temperature before reading on an EnVision plate reader (PerkinElmer, Waltham, Mass.).
(TR-FRET usually uses a lanthanide donor and a delayed reading to cut background.)
As for `Nc1nn(-c2nccc3c(=O)[nH]cnc23)cc1-c1cccc(OCc2ccccc2)c1` [Compound 31, 8-(3-amino-4-(3-(benzyloxy)phenyl)-1H-pyrazol-1-yl)pyrido[3,4-d]pyrimidin-4(3H)-one], the inhibition at 0.1 µM is not below 50%. The figure for `Nc1nn(-c2nccc3c(=O)[nH]cnc23)cc1-c1cccc(Cl)c1` [Compound 32, 8-(3-amino-4-(3-chlorophenyl)-1H-pyrazol-1-yl)pyrido[3,4-d]pyrimidin-4(3H)-one] is 20 to 50%. Take `CN1CCN(Cc2ccc(-c3cn(-c4nccc5c(=O)[nH]cnc45)nc3N)cc2)CC1` [Compound 33, 8-(3-amino-4-(4-((4-methylpiperazin-1-yl)methyl)phenyl)-1H-pyrazol-1-yl)pyrido[3,4-d]pyrimidin-4(3H)-one]: the inhibition at 0.1 µM was in the range of 20 to 50%. As to `Nc1nn(-c2nccc3c(=O)[nH]cnc23)cc1-c1ccc(CN2CCCC2)cc1` [Compound 34, 8-(3-amino-4-(4-(pyrrolidin-1-ylmethyl)phenyl)-1H-pyrazol-1-yl)pyrido[3,4-d]pyrimidin-4(3H)-one], the inhibition at 0.1 µM lay in the range of 20 to 50%. For the compound `Nc1nn(-c2nccc3c(=O)[nH]cnc23)cc1-c1cnn(C2CCCC2)c1` [Compound 35, 8-(3-amino-1′-cyclopentyl-1H,1′H-[4,4′-bipyrazol]-1-yl)pyrido[3,4-d]pyrimidin-4(3H)-one], the inhibition at 0.1 µM was 20 to 50%. For `Nc1nn(-c2nccc3c(=O)[nH]cnc23)cc1-c1cccc(CO)c1` [Compound 36, 8-(3-amino-4-(3-(hydroxymethyl)phenyl)-1H-pyrazol-1-yl)pyrido[3,4-d]pyrimidin-4(3H)-one], the inhibition at 0.1 µM was in the range of 20 to 50%.

In the case of `CN1CCN(Cc2cccc(-c3cn(-c4nccc5c(=O)[nH]cnc45)nc3N)c2)CC1` [Compound 37, 8-(3-amino-4-(3-((4-methylpiperazin-1-yl)methyl)phenyl)-1H-pyrazol-1-yl)pyrido[3,4-d]pyrimidin-4(3H)-one], the inhibition at 0.1 µM was less than 20%. Consider `O=c1[nH]cnc2c(-c3csc(NCCO)n3)nccc12` [Compound 38, 8-(2-((2-hydroxyethyl)amino)thiazol-4-yl)pyrido[3,4-d]pyrimidin-4(3H)-one], for which the inhibition at 0.1 µM is not below 50%.

Take `C[C@H](O)CNc1nc(-c2nccc3c(=O)[nH]cnc23)cs1` [Compound 39, (S)-8-(2-((2-hydroxypropyl)amino)thiazol-4-yl)pyrido[3,4-d]pyrimidin-4(3H)-one]: the inhibition at 0.1 µM is not below 50%. Take `C[C@@H](O)CNc1nc(-c2nccc3c(=O)[nH]cnc23)cs1` [Compound 40, (R)-8-(2-((2-hydroxypropyl)amino)thiazol-4-yl)pyrido[3,4-d]pyrimidin-4(3H)-one]: the inhibition at 0.1 µM is not below 50%. The figure for `O=c1[nH]cnc2c(-c3csc(NCC4CCCO4)n3)nccc12` (stereo not drawn) [Compound 41, 8-(2-(((tetrahydrofuran-2-yl)methyl)amino)thiazol-4-yl)pyrido[3,4-d]pyrimidin-4(3H)-one] is not below 50%; for `COCCNc1nc(-c2nccc3c(=O)[nH]cnc23)cs1` [Compound 42, 8-(2-((2-methoxyethyl)amino)thiazol-4-yl)pyrido[3,4-d]pyrimidin-4(3H)-one] it is not below 50%. Regarding `CN(C)CCNc1nc(-c2nccc3c(=O)[nH]cnc23)cs1` [Compound 43, 8-(2-((2-(dimethylamino)ethyl)amino)thiazol-4-yl)pyrido[3,4-d]pyrimidin-4(3H)-one], the inhibition at 0.1 µM was in the range of 20 to 50%.

For `NCCNc1nc(-c2nccc3c(=O)[nH]cnc23)cs1` [Compound 44, 8-(2-((2-aminoethyl)amino)thiazol-4-yl)pyrido[3,4-d]pyrimidin-4(3H)-one], the inhibition at 0.1 µM lay in the range of 20 to 50%. With `CN1CCN(CCNc2nc(-c3nccc4c(=O)[nH]cnc34)cs2)CC1` [Compound 45, 8-(2-((2-(4-methylpiperazin-1-yl)ethyl)amino)thiazol-4-yl)pyrido[3,4-d]pyrimidin-4(3H)-one], the inhibition at 0.1 µM was in the range of 20 to 50%. On to `O=c1[nH]cnc2c(-c3csc(NCCCO)n3)nccc12` [Compound 46, 8-(2-((3-hydroxypropyl)amino)thiazol-4-yl)pyrido[3,4-d]pyrimidin-4(3H)-one], for which the inhibition at 0.1 µM is 20 to 50%. For the compound `CN(C)CCCNc1nc(-c2nccc3c(=O)[nH]cnc23)cs1` [Compound 47, 8-(2-((3-(dimethylamino)propyl)amino)thiazol-4-yl)pyrido[3,4-d]pyrimidin-4(3H)-one], the inhibition at 0.1 µM was 20 to 50%. The figure for `CN1CCCC1CCNc1nc(-c2nccc3c(=O)[nH]cnc23)cs1` (stereo not drawn) [Compound 48, 8-(2-((2-(1-methylpyrrolidin-2-yl)ethyl)amino)thiazol-4-yl)pyrido[3,4-d]pyrimidin-4(3H)-one] is 20 to 50%. Consider `O=c1[nH]cnc2c(-c3csc(NC4CCNCC4)n3)nccc12` [Compound 49, 8-(2-(piperidin-4-ylamino)thiazol-4-yl)pyrido[3,4-d]pyrimidin-4(3H)-one], for which the inhibition at 0.1 µM was in the range of 20 to 50%. As for `CN1CCC(Nc2nc(-c3nccc4c(=O)[nH]cnc34)cs2)CC1` [Compound 50, 8-(2-((1-methylpiperidin-4-yl)amino)thiazol-4-yl)pyrido[3,4-d]pyrimidin-4(3H)-one], the inhibition at 0.1 µM lay within 20 to 50%. Take `O=c1[nH]cnc2c(-c3csc(NCC4CCN(CCO)CC4)n3)nccc12` [Compound 51, 8-(2-(((1-(2-hydroxyethyl)piperidin-4-yl)methyl)amino)thiazol-4-yl)pyrido[3,4-d]pyrimidin-4(3H)-one]: the inhibition at 0.1 µM is not below 50%. In the case of `O=c1[nH]cnc2c(-c3csc(NCC4CCN(Cc5ccccc5)CC4)n3)nccc12` [Compound 52, 8-(2-(((1-benzylpiperidin-4-yl)methyl)amino)thiazol-4-yl)pyrido[3,4-d]pyrimidin-4(3H)-one], the inhibition at 0.1 µM was not below 50%. Turning to `COCCN1CCC(CNc2nc(-c3nccc4c(=O)[nH]cnc34)cs2)CC1` [Compound 53, 8-(2-(((1-(2-methoxyethyl)piperidin-4-yl)methyl)amino)thiazol-4-yl)pyrido[3,4-d]pyrimidin-4(3H)-one], the inhibition at 0.1 µM was not below 50%. On to `O=c1[nH]cnc2c(-c3csc(NCC4CCN(C5CCCC5)CC4)n3)nccc12` [Compound 54, 8-(2-(((1-cyclopentylpiperidin-4-yl)methyl)amino)thiazol-4-yl)pyrido[3,4-d]pyrimidin-4(3H)-one], for which the inhibition at 0.1 µM was not below 50%.

For `CC(C)N1CCC(CNc2nc(-c3nccc4c(=O)[nH]cnc34)cs2)CC1` [Compound 55, 8-(2-(((1-isopropylpiperidin-4-yl)methyl)amino)thiazol-4-yl)pyrido[3,4-d]pyrimidin-4(3H)-one], the inhibition at 0.1 µM is not below 50%. The figure for `O=c1[nH]cnc2c(-c3csc(NCC4CCNCC4)n3)nccc12` [Compound 56, 8-(2-((piperidin-4-ylmethyl)amino)thiazol-4-yl)pyrido[3,4-d]pyrimidin-4(3H)-one] is not below 50%. For `N[C@H]1CC[C@@H](Nc2nc(-c3nccc4c(=O)[nH]cnc34)cs2)CC1` [Compound 57, 8-(2-(((1s,4s)-4-aminocyclohexyl)amino)thiazol-4-yl)pyrido[3,4-d]pyrimidin-4(3H)-one], the inhibition at 0.1 µM lay in the range of 20 to 50%. The figure for `CN1CCOC(CNc2nc(-c3nccc4c(=O)[nH]cnc34)cs2)C1` (stereo not drawn) [Compound 58, 8-(2-(((4-methylmorpholin-2-yl)methyl)amino)thiazol-4-yl)pyrido[3,4-d]pyrimidin-4(3H)-one] is 20 to 50%; for `CN1CCC(CNc2nc(-c3nccc4c(=O)[nH]cnc34)cs2)C1` (stereo not drawn) [Compound 59, 8-(2-(((1-methylpyrrolidin-3-yl)methyl)amino)thiazol-4-yl)pyrido[3,4-d]pyrimidin-4(3H)-one] it is 20 to 50%.

With `CCC(O)CNc1nc(-c2nccc3c(=O)[nH]cnc23)cs1` (stereo not drawn) [Compound 60, 8-(2-((2-hydroxybutyl)amino)thiazol-4-yl)pyrido[3,4-d]pyrimidin-4(3H)-one], the inhibition at 0.1 µM lay in the range of 20 to 50%.

By inhibition is commonly meant the share of the control response that was lost under treatment.

For the origin of these results see patent US20170057955A1, “Pyridopyrimidinone Compounds for Modulating the Catalytic Activity of Histone Lysine Demethylases (KDMs)” (Dong-A Socio Holdings Co., Ltd., priority 2015, published 2017).
